Results from article PMC7038240 (Antimicrobial Agents and Chemotherapy, 2020).
Where two headings read alike, the source gives them in different places.

What was measured:
[1] = system: E. coli; assay: microbe, parasite or virus in culture; format: cell-based; conditions: Escherichia coli, read-out: MIC
Text: (§1) The antibacterial activity of cefepime-taniborbactam was compared to that of ceftazidime-avibactam, ceftolozane-tazobactam, and cefepime-tazobactam against a diverse panel of Enterobacterales and P. aeruginosa clinical isolates with defined β-lactamase subtypes (see Table S1 in the supplemental material). IMP-producing strains were excluded, as none of the BLI-protected cephalosporins inhibited IMP sufficiently to provide a clinically relevant rescue of the partner β-lactam, a characteristic also shared by approved BLI-protected carbapenems (meropenem-vaborbactam and imipenem-relebactam). […] The antibacterial activity of the cephalosporins alone was included to ascertain the level of potentiation by the partnered BLI. BLIs were tested at a fixed concentration of 4 μg/ml in all combinations except cefepime-tazobactam, where tazobactam was fixed at a concentration of 8 μg/ml ([38]). The collection comprised 143 clinical isolates collected from 2005 and 2018.
(§2) The in vitro antibacterial activity of the β-lactams alone or in combination with the BLIs was determined in cation-adjusted Mueller-Hinton broth (CAMHB) microdilution assays according to CLSI recommendations ([51]). […]. The inocula for the broth microdilution assays were prepared by the broth culture method ([51]). […]

[2] = system: P. aeruginosa; assay: microbe, parasite or virus in culture; format: cell-based; conditions: Pseudomonas aeruginosa
Text: as §1, §2

Measured: MIC

CO/N=C(\C(=O)N[C@@H]1C(=O)N2C(C(=O)[O-])=C(C[N+]3(C)CCCC3)CS[C@H]12)c1csc(N)n1 [FEP]
≥ 256 µg/mL: [1]; strain 878358, TEM-1/CTX-M | [1]; strain 1459453, NDM-7 | [1]; strain CDC-0149, NDM | [1]; strain ESBL 5, CTX-M-15/TEM-1 | [2]; strain 11.813, PDC-91, read-out: MIC | [2]; strain 1013996, KPC-2, read-out: MIC | [2]; strain 1138223, GES-19, read-out: MIC | [2]; strain 1138337, GES-19, read-out: MIC | [2]; strain 1275655, GES-20, read-out: MIC | [2]; strain 1300089, GES-19, read-out: MIC | [2]; strain 1313666, KPC-2, read-out: MIC | [2]; strain PAA1-9G1, GES-5, read-out: MIC | [2]; strain PAA1-9G2, GES-5, read-out: MIC
4 µg/mL: [1]; strain EC1552 2A, AmpC/CMY-2/TEM-1, CTX-M-15 | [2]; strain 1129, PDC, read-out: MIC | [2]; strain 377860, W.T., read-out: MIC | [2]; strain 384743, PDC/TEM-1, read-out: MIC | [2]; strain Ps296, VIM-2, read-out: MIC
0.5 µg/mL: [1]; strain VER, OXA-48
32 µg/mL: [1]; strain 664520, OXA-48 | [1]; strain CDC-0069, NDM | [2]; P. aeruginosa PS-12 (ST-235, VIM-2), BLI fixed at 4 μg/ml, read-out: MIC | [2]; strain 10.257, PDC-50, read-out: MIC | [2]; strain 247.3D, VIM-2, read-out: MIC | [2]; strain 1113755, GES-5, read-out: MIC | [2]; strain 1258509, GES-6, read-out: MIC | [2]; strain PS-12, VIM-2, read-out: MIC
8 µg/mL: [1]; strain 875627, CTX-M-27 | [1]; strain SI-V502, TEM-29/CTX-M-15 | [2]; strain 8273, PDC/TEM-1, read-out: MIC | [2]; strain PA2, W.T., read-out: MIC | [2]; strain PS-32, VIM-2, read-out: MIC
64 µg/mL: [1]; NCTC13353, E. coli NCTC 13353, CTX-M-15 | [1]; strain 664516, OXA-48 | [1]; strain 664522, OXA-48 | [1]; strain 849121, KPC | [1]; strain 890500, TEM-1/CTX-M-14 | [1]; strain 1275635, VIM-23 | [1]; strain SI-LP377, CTX-M-2 | [2]; strain 13.1717, PDC-74, read-out: MIC | [2]; strain 13.1775, PDC-87, read-out: MIC | [2]; strain Paeβ-18, 600-fold ↑ PDC-3/<0.01% OprD/3.9x and 5.6x ↑ABM and XYM, read-out: MIC
1 µg/mL: [1]; strain 469, AmpC/SHV-12/TEM-1 | [2]; ATCC27853, P. aeruginosa ATCC 27853, PDC-5, read-out: MIC | [2]; ATCC27853, strain ATCC 27853, W.T., read-out: MIC | [2]; strain 164951, W.T., read-out: MIC
0.25 µg/mL: [1]; strain SI-PO26, AmpC/CMY-2/TEM-1
16 µg/mL: [1]; strain 1924, TEM-12 | [1]; strain 664507, OXA-48 | [1]; strain SI-M004, SHV-2/GES-12 | [2] | [2]; P. aeruginosa CDC-0457, VIM, read-out: MIC | [2]; strain 11.516, PDC-79, read-out: MIC | [2]; strain 13.1737, PDC-80, read-out: MIC | [2]; strain 13.1755, PDC-86, read-out: MIC | [2]; strain 13.1760, PDC-77, read-out: MIC | [2]; strain 3615, PDC/TEM-1, read-out: MIC | [2]; strain 5671, VIM-1, read-out: MIC | [2]; strain 1071703, GES-6, read-out: MIC | [2]; strain Paeβ-04, 100-fold ↑ PDC-2/30% OprD/5.6x ↑ABM, read-out: MIC | [2]; strain Paeβ-10, 67-fold ↑ PDC-2/0.1% OprD/5.7x↑ABM, read-out: MIC | [2]; strain Paeβ-21, 200-fold ↑ PDC-4/10% OprD/13.5x ↑XYM, read-out: MIC
128 µg/mL: [1]; strain 664523, OXA-48 | [1]; strain 873435, CTX-M-15 | [1]; strain CDC-0001, KPC | [2]; strain 11.698, PDC-87, read-out: MIC | [2]; strain 13.1716, PDC-74, read-out: MIC | [2]; strain CDC-0090, KPC, read-out: MIC | [2]; strain Paeβ-15, 310-fold ↑ PDC-2/10% OprD/4.4x↑XYM, read-out: MIC
